Structures can show the parent of a compound that is named as a salt.
Tests used:
[1] = biological target: T1, human TLR2 (Pam3CSK4, TLR1/2 agonist) in HEK-Blue hTLR2 cells (Homo sapiens, UniProt O60603); test: HEK-Blue hTLR2 antagonism assay (SEAP reporter) with Pam3CSK4 as agonist; format: cell-based; conditions: 2 h compound pre-incubation, approx. 3×EC50 Pam3CSK4, 18 h, SEAP OD 655 nm, background subtracted
T1 construct: host or cells: HEK-Blue hTLR2 (HEK-293)
Description: (§1) Synthetic diacylated lipoprotein (Pam2CSK4, TLR2/6 agonist) and synthetic triacylated lipoprotein (Pam3CSK4, TLR1/2 agonist) were obtained from InvivoGen and were dissolved in endotoxin-free water to a concentration 1 mg/mL, vortexed until complete solubilization, and stored in aliquots at −20° C. Prior to addition to cells, an aliquot of the dissolved ligand was vortexed shortly and then was diluted in medium to 25 ng/mL Pam2CSK4 or 1000 ng/mL Pam3CSK4. The EC50 of the agonists for each assay run was determined by using 3-fold dilutions of each agonist from the following starting concentrations: 5 ng/mL for Pam2CSK4, and 200 ng/mL for Pam3CSK4.
(§2) Test compounds were solubilized fresh to 10-20 mM stocks in DMSO and sonicated for 5-10 minutes in a water bath sonicator. Serial dilutions were prepared in DMSO, and then diluted in medium. The final concentration of DMSO used in the assay was 1%.
(§3) HEK-Blue hTLR2 reporter cells (InvivoGen) are HEK-293 cells stably expressing both the human TLR2 gene and a secreted embryonic alkaline phosphatase (SEAP) reporter construct downstream of NFκB promotor sites. HEK-Blue hTLR2 reporters were cultured according to manufacturer's protocol using Dulbecco's Modified Eagle Medium (DMEM; Gibco) containing 1× GlutaMax (Gibco), 10% heat-inactivated Fetal Bovine Serum (Gibco), Pen-Strep (50 U/mL penicillin, 50 μg/mL streptomycin, Gibco), 100 μg/mL Normocin (InvivoGen), and the selective antibiotic, 1× HEK-Blue Selection (InvivoGen). Quanti-Blue reagent (InvivoGen) for detection and quantification of secreted alkaline phosphatase was dissolved in 100 mL of endotoxin-free water, warmed to 37° C. for 30 minutes and then filtered using a 0.2 μm membrane.
(§4) On day 1, 50 μL of each test compound dilution in duplicates or a vehicle control was added to each well of a 96-well plate followed by addition of 150 μL of HEK-Blue hTLR2 cell suspension (1×10^5 cells/well) and incubated at 37° C./5% CO2 for 2 h. Next, 50 μL of an approximate 3×EC50 concentration of each agonist (Pam2CSK4 or Pam3CSK4) was added to the wells containing test compounds or the vehicle control. The plates were then incubated at 37° C./5% CO2 for 18 h. For each assay run, non-treated HEK-Blue hTLR2 cells were treated with serial dilutions of agonists to determine EC50 values for the respective run.
(§5) On day 2, secreted alkaline phosphatase (SEAP) activity was detected in cell culture supernatants. In brief, 20 μL was collected from each well and transferred to a 96-well plate. Next, 200 μL of Quanti-Blue detection reagent was added to each well. Plates were incubated at room temperature for 15 min and SEAP activity was assessed by spectrophotometer OD reading at 655 nm. […] The activities of the compounds against Pam2CSK4 and Pam3CSK4 are presented as IC50 values for the response from cells treated with agonists with the background signal subtracted.

[2] = biological target: T2, human TLR2 (Pam2CSK4, TLR2/6 agonist) in HEK-Blue hTLR2 cells (Homo sapiens, UniProt O60603); test: HEK-Blue hTLR2 antagonism assay (SEAP reporter) with Pam2CSK4 as agonist; format: cell-based; conditions: 2 h compound pre-incubation, approx. 3×EC50 Pam2CSK4, 18 h, SEAP OD 655 nm, background subtracted
T2 construct: host or cells: HEK-Blue hTLR2 (HEK-293)
T2 sequence (O60603 19-784 limits assumed): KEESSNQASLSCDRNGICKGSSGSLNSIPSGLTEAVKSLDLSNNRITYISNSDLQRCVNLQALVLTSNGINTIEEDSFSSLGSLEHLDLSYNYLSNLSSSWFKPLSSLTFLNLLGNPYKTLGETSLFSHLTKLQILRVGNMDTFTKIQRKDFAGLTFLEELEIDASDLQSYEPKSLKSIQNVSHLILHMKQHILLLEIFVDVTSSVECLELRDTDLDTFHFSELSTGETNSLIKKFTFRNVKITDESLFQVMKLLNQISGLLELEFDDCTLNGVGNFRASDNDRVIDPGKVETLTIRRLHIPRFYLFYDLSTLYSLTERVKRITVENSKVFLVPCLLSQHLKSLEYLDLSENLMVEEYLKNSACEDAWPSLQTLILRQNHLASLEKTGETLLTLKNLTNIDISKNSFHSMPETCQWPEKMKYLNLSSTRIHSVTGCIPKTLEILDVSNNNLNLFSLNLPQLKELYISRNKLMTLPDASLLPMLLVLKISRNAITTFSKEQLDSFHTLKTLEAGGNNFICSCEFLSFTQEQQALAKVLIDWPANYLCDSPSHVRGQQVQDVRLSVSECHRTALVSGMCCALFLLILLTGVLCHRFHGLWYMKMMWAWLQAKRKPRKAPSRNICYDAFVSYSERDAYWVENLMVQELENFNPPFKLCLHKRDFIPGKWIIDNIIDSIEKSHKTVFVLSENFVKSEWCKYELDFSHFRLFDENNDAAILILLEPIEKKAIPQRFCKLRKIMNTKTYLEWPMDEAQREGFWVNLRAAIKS
Description: as §1, §2, §3, §4, §5

T1 sequence (O60603 19-784 limits assumed): as above

| Structure (SMILES) | IC50 [1] | IC50 [2] |
| --- | --- | --- |
| COc1cc(/C=C/c2ccc3ccccc3c2)cc(C=O)c1O [compound 32, (E)-2-hydroxy-3-methoxy-5-(2-(naphthalen-2-yl)vinyl)benzaldehyde] | 1 µM | 1.1 µM |
| Oc1c(F)cc(/C=C/c2ccc(N3CCCC3)cc2)cc1/C=N/c1ccccc1 [compound 78, 2-fluoro-6-((E)-(phenylimino)methyl)-4-((E)-4-(pyrrolidin-1-yl)styryl)phenol] | 0.9 µM | 1 µM |
| COc1cc(/C=C/C(=O)c2ccccc2)cc(C(=O)/C=C/c2ccccc2)c1O [compound 84, (E)-3-(3-cinnamoyl-4-hydroxy-5-methoxyphenyl)-1-phenylprop-2-en-1-one] | 3.1 µM | 3.4 µM |
| CCN1CCN(/N=C/c2cc(/C=C/c3ccc(N4CCCC4)cc3)cc(F)c2O)CC1 [compound 93, 2-((E)-((4-ethylpiperazin-1-yl)imino)methyl)-6-fluoro-4-((E)-4-(pyrrolidin-1-yl)styryl)phenol] | 3.2 µM | 24.5 µM |
| COc1cc(/C=C/C2CCN(C(=O)OC(C)(C)C)CC2)cc(C=O)c1O [compound 27, tert-butyl (E)-4-(3-formyl-4-hydroxy-5-methoxystyryl)piperidine-1-carboxylate] | 7.7 µM | 4.4 µM |
| N=C(N)N/N=C/c1cc(/C=C/c2ccc(N3CCCC3)cc2)cc(F)c1O [compound 83, 2-((E)-3-fluoro-2-hydroxy-5-((E)-4-(pyrrolidin-1-yl)styryl)benzylidene)hydrazine-1-carboximidamide] | 88.9 µM | 36.7 µM |
| CN1CCc2sc(-c3cc(F)c(O)c(C=O)c3)cc2C1 [compound 18, 3-fluoro-2-hydroxy-5-(5-methyl-4,5,6,7-tetrahydrothieno[3,2-c]pyridin-2-yl)benzaldehyde] | 12.2 µM | 10.4 µM |
| CCO/N=C/c1cc(/C=C/c2ccc(N3CCCC3)cc2)cc(F)c1O [compound 89, (E)-3-fluoro-2-hydroxy-5-((E)-4-(pyrrolidin-1-yl)styryl)benzaldehyde O-ethyl oxime] | 29.6 µM | 29.5 µM |
| Oc1c(F)cc(/C=C/c2ccc(N3CCCC3)cc2)cc1C1OCCCO1 [compound 75, (E)-2-(1,3-dioxan-2-yl)-6-fluoro-4-(4-(pyrrolidin-1-yl)styryl)phenol] | 1.3 µM | 1.2 µM |
| Oc1c(F)cc(/C=C/c2ccc(N3CCCC3)cc2)cc1/C=N/N1CCNCC1 [compound 96] | 1.3 µM | 3.2 µM |
| O=Cc1cc(/C=C/c2ccc(-c3ccccc3)cc2)cc(F)c1O [compound 37, (E)-5-(2-([1,1′-biphenyl]-4-yl)vinyl)-3-fluoro-2-hydroxybenzaldehyde] | 0.3 µM | 1 µM |
| CN1CCCc2cc(/C=C/c3cc(F)c(O)c(C=O)c3)ccc21 [compound 62, (E)-3-fluoro-2-hydroxy-5-(2-(1-methyl-1,2,3,4-tetrahydroquinolin-6-yl)vinyl)benzaldehyde] | 0.8 µM | 1.5 µM |
| O=Cc1cc(/C=C/c2ccc3c(c2)OCCO3)cc(F)c1O [compound 39, (E)-5-(2-(2,3-dihydrobenzo[b][1,4]dioxin-6-yl)vinyl)-3-fluoro-2-hydroxybenzaldehyde] | 15.4 µM | 12.8 µM |
| O=Cc1cc(/C=C\c2ccc(N3CCCC3)cc2)cc(F)c1O [compound 50, (Z)-3-fluoro-2-hydroxy-5-(4-(pyrrolidin-1-yl)styryl)benzaldehyde] | 6.7 µM | 10 µM |
| COc1cc(-c2cc3c(s2)CCNC3)cc(C=O)c1O [compound 13, 2-hydroxy-3-methoxy-5-(4,5,6,7-tetrahydrothieno[3,2-c]pyridin-2-yl)benzaldehyde hydrochloride] | 3.8 µM | 4.5 µM |
| CC(C)(C)OC(=O)N1CCCc2cc(/C=C/c3cc(F)c(O)c(C=O)c3)ccc21 [compound 61, tert-butyl (E)-6-(3-fluoro-5-formyl-4-hydroxystyryl)-3,4-dihydroquinoline-1(2H)-carboxylate] | 0.4 µM | 1 µM |

| Structure (SMILES) | IC50 [1] | IC50 [2] |
| --- | --- | --- |
| COCCOc1ccc(/C=C/c2cc(F)c(O)c(C=O)c2)cc1 [compound 55, (E)-3-fluoro-2-hydroxy-5-(4-(2-methoxyethoxy)styryl)benzaldehyde] | 4.1 µM | 3.6 µM |
| CC(C)(C)OC(=O)N1CCC(/C=C/c2cc(F)c(O)c(C=O)c2)CC1 [compound 31, tert-butyl (E)-4-(3-fluoro-5-formyl-4-hydroxystyryl)piperidine-1-carboxylate] | 6 µM | 3.8 µM |
| O=C1CN(/N=C/c2cc(/C=C/c3ccc(N4CCCC4)cc3)cc(F)c2O)C(=O)N1 [compound 88, 1-(((E)-3-fluoro-2-hydroxy-5-((E)-4-(pyrrolidin-1-yl)styryl)benzylidene)amino)imidazolidine-2,4-dione] | 7.9 µM | 11.2 µM |
| O=Cc1cc(/C=C/c2ccc(N3CCCC3)cc2)cc(F)c1O [Example 49b, (E)-3-fluoro-2-hydroxy-5-(4-(pyrrolidin-1-yl)styryl)benzaldehyde] | 0.8 µM | 0.8 µM |
| CCN(CC)c1ccc(/C=C/c2cc(F)c(O)c(C=O)c2)cc1 [compound 64, (E)-5-(4-(diethylamino)styryl)-3-fluoro-2-hydroxybenzaldehyde] | 0.5 µM | 1.1 µM |
| C[N+]1([O-])CCN(/N=C/c2cc(/C=C/c3ccc(N4CCCC4)cc3)cc(F)c2O)CC1 [compound 85, 4-(((E)-3-fluoro-2-hydroxy-5-((E)-4-(pyrrolidin-1-yl)styryl)benzylidene)amino)-1-methylpiperazine 1-oxide] | 1.9 µM | 4.5 µM |
| COc1cc(/C=C\c2ccc(N3CCCC3)cc2)cc(C=O)c1O [compound 51, (Z)-2-hydroxy-3-methoxy-5-(4-(pyrrolidin-1-yl)styryl)benzaldehyde] | 70.1 µM | 71.3 µM |
| O=C(N/N=C/c1cc(/C=C/c2ccc(N3CCCC3)cc2)cc(F)c1O)c1ccccc1 [compound 80, N′-((E)-3-fluoro-2-hydroxy-5-((E)-4-(pyrrolidin-1-yl)styryl)benzylidene)benzohydrazide] | 14.8 µM | 28.4 µM |
| O=Cc1cc(/C=C/c2ccncc2)cc(F)c1O [compound 30, (E)-3-fluoro-2-hydroxy-5-(2-(pyridin-4-yl)vinyl)benzaldehyde] | 18.8 µM | 20.6 µM |
| O=Cc1cc(/C=C/c2ccc(-n3cccn3)cc2)cc(F)c1O [compound 57, (E)-5-(4-(1H-pyrazol-1-yl)styryl)-3-fluoro-2-hydroxybenzaldehyde] | 1.9 µM | 1.7 µM |
| Oc1c(F)cc(/C=C/c2ccc(N3CCCC3)cc2)cc1/C=N/N1CCN(C2CC2)CC1 [compound 92, 2-((E)-((4-cyclopropylpiperazin-1-yl)imino)methyl)-6-fluoro-4-((E)-4-(pyrrolidin-1-yl)styryl)phenol] | 32.3 µM | 26.6 µM |
| CC(=O)N/N=C/c1cc(/C=C/c2ccc(N3CCCC3)cc2)cc(F)c1O [compound 77, N′-((E)-3-fluoro-2-hydroxy-5-((E)-4-(pyrrolidin-1-yl)styryl)benzylidene)acetohydrazide] | 1.1 µM | 1.4 µM |
| COc1cc(/C=C/c2ccc3ncccc3c2)cc(C=O)c1O [compound 58, (E)-2-hydroxy-3-methoxy-5-(2-(quinolin-6-yl)vinyl)benzaldehyde] | 5 µM | 4.9 µM |
| COc1cc(/C=C/c2ccc(N3CCOCC3)cc2)cc(C=O)c1O [compound 40, (E)-2-hydroxy-3-methoxy-5-(4-morpholinostyryl)benzaldehyde] | 2.5 µM | 2.3 µM |
| COc1ccc(/C=C/c2cc(F)c(O)c(C=O)c2)cc1 [compound 10, (E)-3-fluoro-2-hydroxy-5-(4-methoxystyryl)benzaldehyde] | 3.8 µM | 4.6 µM |
